Where only a bound is given, the exact number is not on record here.

The subject of one experiment is NRK-49F cells. In words: Cell death protective effect in renal fibroblasts against Erastin, glutamate and RSL3 (LDH). Format: cell-based, rat. Particulars: 24 hours. The method, then: In order to identify the protective effect on renal fibroblasts, NRK-49F cells were divided into 96-well plates by 1×10^4 and cultured for 18 to 24 hours. The compounds of Examples were diluted to final concentrations of 0.1 and 1 μM, treated in each well, and incubated for 15 to 20 minutes. Erastin, glutamate, and RSL3 were treated to have final concentrations of 3 μM, 75 mM, and 3 μM, respectively, and cultured for 24 hours. In order to identify the protective effect of each compound, the degree of LDH extracellular secretion was measured using cytotoxicity LDH assay kit [Dojindo; CK12]. Briefly, at the time when the treatment of the cells with Erastin, glutamate, and RSL3 for 24 hours is completed, the supernatants containing the cells are taken by 70 μl and transferred to a new 96-well plate. The assay buffer included in the kit is added in an amount of 70 μL/well (the same amount as the sample) thereto, and then the plate is wrapped with a foil and the reaction is performed at room temperature for 15 minutes.

The test system of the next experiment is H9C2 cells. Nature of the experiment: Protective effect on heart cells against t-BHP (LDH release). Format: cell-based. Particulars: H9C2, t-BHP 400 μM, 2 hours, read-out: EC50 (μM), Cell Protection Effect against t-BHP in Heart Cells. The method in brief:
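H9C2 cells (1.5×10^4/well, cultured 24 h) were pretreated 15–20 min with compound at 0.01–30 μM final, then exposed 2 h to 400 μM t-BHP. LDH in supernatant was measured colorimetrically at 490 nm after 30 min room-temperature reaction; EC50 derived from protection.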
A general note: Release of lactate dehydrogenase indicates damage to the cell membrane.

In another experiment the test system is PC-12 cells. In words: Cell death protective effect in adrenal cells against Erastin, glutamate and RSL3 (LDH). The class given is cell-based, rat. Particulars: 24 hours. The method, then: In order to identify the protective effect on adrenal cells, PC-12 cells were divided into 96-well plates by 1×10^4 and cultured for 18 to 24 hours. The compounds of Examples were diluted to final concentrations of 0.1 and 1.0 μM in Erastin, 0.01 and 0.1 in glutamate, and 0.3 and 3.0 μM in RSL3, treated in each well, and incubated for 15 to 20 minutes. Erastin, glutamate, and RSL3 were treated to have final concentrations of 1 μM, 10 mM, and 0.3 μM, respectively, and cultured for 24 hours. In order to identify the protective effect of each compound, the degree of LDH extracellular secretion was measured using cytotoxicity LDH assay kit [Dojindo; CK12]. Briefly, at the time when the treatment of the cells with Erastin, glutamate, and RSL3 for 24 hours is completed, the supernatants containing the cells are taken by 70 μL and transferred to a new 96-well plate. The assay buffer included in the kit is added in an amount of 70 μL/well (the same amount as the sample) thereto, and then the plate is wrapped with a foil and the reaction is performed at room temperature for 15 minutes. After observing the changed color of the sample, the stop solution was added in an amount of 35 µL/well thereto, and then the 0 inhibition value was calculated by measuring the absorbance value at a wavelength of 490 nm using an iD3 spectrophotometer.

For a further experiment, the system named is MLE-12 cells. In words: Cell death protective effect in lung epithelial cells against RSL3 (LDH). The class given is cell-based, rat. Particulars: MLE-12, RSL3 1.0 μM, 24 hours. The procedure: In order to identify the protective effect on lung epithelial cells, MLE-12 cells were divided into 96-well plates by 5×10^3 and cultured for 18 to 24 hours. The compounds of Examples were diluted to final concentrations of 0.1 and 1.0 μM, treated in each well, and incubated for 20 minutes. RSL3 was treated to have final concentrations of 1.0 μM, respectively, and cultured for 24 hours. In order to identify the protective effect of each compound, the degree of LDH extracellular secretion was measured using cytotoxicity LDH assay kit [Dojindo; CK12]. Briefly, at the time when the treatment of the cells with RSL3 for 24 hours is completed, the supernatants containing the cells are taken by 70 μL and transferred to a new 96-well plate. The assay buffer included in the kit is added in an amount of 70 μL/well (the same amount as the sample) thereto, and then the plate is wrapped with a foil and the reaction is performed at room temperature for 15 minutes.

For a further experiment, the system named is ARPE-19 cells. Nature of the experiment: Cell death protective effect in retinal epithelial cells against Erastin and RSL3 (LDH). Format: cell-based, human. Particulars: 24 hours. The procedure:
In order to identify the protective effect on retinal epithelial cells, ARPE-19 cells were divided into 96-well plates by 1×10^4 and cultured for 18 to 24 hours. The compounds of Examples were diluted to final concentrations of 0.03 and 0.3 μM, treated in each well, and incubated for 20 minutes. Erastin, and RSL3 were treated to have final concentrations of 10 μM, and 0.3 μM, respectively, and cultured for 24 hours. In order to identify the protective effect of each compound, the degree of LDH extracellular secretion was measured using cytotoxicity LDH assay kit [Dojindo; CK12]. Briefly, at the time when the treatment of the cells with Erastin, and RSL3 for 24 hours is completed, the supernatants containing the cells are taken by 70 μL and transferred to a new 96-well plate. The assay buffer included in the kit is added in an amount of 70 μL/well (the same amount as the sample) thereto, and then the plate is wrapped with a foil and the reaction is performed at room temperature for 15 minutes.

Setting [1] is: Glutamate 75 mM, compound 0.1 μM.
Setting [2] is: Glutamate 75 mM, compound 1.0 μM.
[3] abbreviates: PC-12, Erastin 1 μM, compound 0.1 μM.
Where [4] appears, read: PC-12, Erastin 1 μM, compound 1.0 μM.
Setting [5] is: PC-12, Glutamate 10 mM, compound 0.01 μM.
Where [6] appears, read: PC-12, Glutamate 10 mM, compound 0.1 μM.
[7] abbreviates: PC-12, RSL3 0.3 μM, compound 0.3 μM.
Setting [8] is: PC-12, RSL3 0.3 μM, compound 3.0 μM.
Setting [9] is: ARPE-19, Erastin 10 μM, compound 0.03 μM.
Where [10] appears, read: ARPE-19, Erastin 10 μM, compound 0.3 μM.
The mark [11] stands for this setting: ARPE-19, RSL3 0.3 μM, compound 0.03 μM.
[12] abbreviates: ARPE-19, RSL3 0.3 μM, compound 0.3 μM.

For the compound `COCCOCc1cc(NC2CCOCC2)c2[nH]c(-c3ccccc3)cc2c1` [Example 1, 5-(2-methoxyethoxymethyl)-2-phenyl-N-tetrahydropyran-4-yl-1H-indol-7-amine], the “inhibition (%)” value in the experiment on NRK-49F cells (Erastin 3 μM, compound 0.1 μM) is on record as 99%; in the experiment with NRK-49F cells (Erastin 3 μM, compound 1.0 μM), 99%; in the experiment with NRK-49F cells (setting [1]), 100%; in the experiment with NRK-49F cells (setting [2]), 100%; with NRK-49F cells (RSL3 3 μM, compound 0.1 μM), 99%; in the experiment on NRK-49F cells (RSL3 3 μM, compound 1.0 μM) it was 99%. In addition, the “inhibition (%)” value in the experiment with PC-12 cells (setting [3]) was found to be 100%; in the experiment on PC-12 cells (setting [4]), 100%; in the experiment with PC-12 cells (setting [5]), 53%; in the experiment with PC-12 cells (setting [6]), 98%; with PC-12 cells (setting [7]) it was 100%; with PC-12 cells (setting [8]), 100%. Besides, the “inhibition (%)” value in the experiment with MLE-12 cells (compound 0.1 μM) is 100%; with MLE-12 cells (compound 1.0 μM), 100%; in the experiment on ARPE-19 cells (setting [9]), 100%; in the experiment with ARPE-19 cells (setting [10]), 100%; in the experiment with ARPE-19 cells (setting [11]) it was 95%; with ARPE-19 cells (setting [12]) it was 100%. For the same compound, in the experiment on H9C2 cells, the EC50 – broadly, the concentration needed to bring the measured effect to its halfway point – is at most 0.3 µM.

Consider `COCCOCc1cc(NCC2CCOCC2)c2[nH]c(-c3ccccc3)cc2c1` [Example 4, 5-2(methoxyethoxymethyl)-2-phenyl-N-(tetrahydropyran-4-ylmethyl)-1H-indol-7-amine], for which the “inhibition (%)” value is recorded as 99% with NRK-49F cells (Erastin 3 μM, compound 0.1 μM); 99% in the experiment on NRK-49F cells (Erastin 3 μM, compound 1.0 μM); 99% in the experiment on NRK-49F cells (setting [1]); 100% with NRK-49F cells (setting [2]); 98% with NRK-49F cells (RSL3 3 μM, compound 0.1 μM); 99% with NRK-49F cells (RSL3 3 μM, compound 1.0 μM). Also, the “inhibition (%)” value is reported as 100% in the experiment on PC-12 cells (setting [3]); 100% in the experiment on PC-12 cells (setting [4]); 53% in the experiment on PC-12 cells (setting [5]); 96% in the experiment with PC-12 cells (setting [6]); 100% in the experiment on PC-12 cells (setting [7]); 100% in the experiment with PC-12 cells (setting [8]). Besides, the “inhibition (%)” value amounted to 90% with MLE-12 cells (compound 0.1 μM); 91% in the experiment with MLE-12 cells (compound 1.0 μM); 100% in the experiment with ARPE-19 cells (setting [9]); 100% with ARPE-19 cells (setting [10]); 100% with ARPE-19 cells (setting [11]); 100% with ARPE-19 cells (setting [12]). Moreover, the EC50 in the experiment with H9C2 cells was at most 0.3 µM.

With `COCCOCc1cc(NC2CCN(C(C)=O)CC2)c2[nH]c(-c3ccccc3)cc2c1` [Example 30, 1-[4-[[5-(2-methoxyethoxymethyl)-2-phenyl-1H-indol-7-yl]amino]piperidyl]-1-ethanone], the “inhibition (%)” value in the experiment on NRK-49F cells (Erastin 3 μM, compound 0.1 μM) is 98%; with NRK-49F cells (Erastin 3 μM, compound 1.0 μM), 98%; in the experiment with NRK-49F cells (setting [1]) it was 97%; in the experiment on NRK-49F cells (setting [2]), 100%; in the experiment on NRK-49F cells (RSL3 3 μM, compound 0.1 μM), 52%; in the experiment on NRK-49F cells (RSL3 3 μM, compound 1.0 μM), 98%. Further, the “inhibition (%)” value in the experiment with PC-12 cells (setting [3]) amounted to 86%; in the experiment on PC-12 cells (setting [4]), 100%; in the experiment on PC-12 cells (setting [5]), 33%; in the experiment on PC-12 cells (setting [6]) it was 95%; in the experiment with PC-12 cells (setting [7]), 100%; in the experiment with PC-12 cells (setting [8]), 100%. Also, the “inhibition (%)” value is given as 84% with MLE-12 cells (compound 0.1 μM); 95% with MLE-12 cells (compound 1.0 μM); 80% in the experiment on ARPE-19 cells (setting [9]); 100% in the experiment on ARPE-19 cells (setting [10]); 60% in the experiment on ARPE-19 cells (setting [11]); 100% with ARPE-19 cells (setting [12]). Besides, the EC50 in the experiment with H9C2 cells is at most 0.3 µM.

For the compound `CCOCCOCc1cc(NC2CCCC2)c2[nH]c(-c3ccccc3)cc2c1` [Example 36, N-cyclopentyl-5-(2-ethoxyethoxymethyl)-2-phenyl-1H-indol-7-amine], the “inhibition (%)” value in the experiment on NRK-49F cells (Erastin 3 μM, compound 0.1 μM) is 99%; in the experiment with NRK-49F cells (Erastin 3 μM, compound 1.0 μM) it was 99%; with NRK-49F cells (setting [1]), 100%; in the experiment on NRK-49F cells (setting [2]), 100%; in the experiment on NRK-49F cells (RSL3 3 μM, compound 0.1 μM), 98%; with NRK-49F cells (RSL3 3 μM, compound 1.0 μM) it was 99%. The “inhibition (%)” value is given as 100% in the experiment with PC-12 cells (setting [3]); 100% in the experiment on PC-12 cells (setting [4]); 61% in the experiment with PC-12 cells (setting [5]); 95% with PC-12 cells (setting [6]); 100% in the experiment with PC-12 cells (setting [7]); 100% in the experiment on PC-12 cells (setting [8]). Moreover, the “inhibition (%)” value is listed as 89% in the experiment on MLE-12 cells (compound 0.1 μM); 94% in the experiment on MLE-12 cells (compound 1.0 μM); 98% in the experiment on ARPE-19 cells (setting [9]); 100% in the experiment with ARPE-19 cells (setting [10]); 100% with ARPE-19 cells (setting [11]); 100% in the experiment with ARPE-19 cells (setting [12]). Further, in the experiment on H9C2 cells, the EC50 is at most 0.3 µM.

Regarding `CCOC(=O)c1ccc(NC2CCCCC2)c(N)c1` [Ferrostatin-1, reference compound], the “inhibition (%)” value in the experiment with NRK-49F cells (Erastin 3 μM, compound 0.1 μM) was found to be 99%; in the experiment with NRK-49F cells (Erastin 3 μM, compound 1.0 μM), 98%; with NRK-49F cells (setting [1]) it was 95%; in the experiment on NRK-49F cells (setting [2]), 100%; in the experiment on NRK-49F cells (RSL3 3 μM, compound 0.1 μM) it was 94%; in the experiment with NRK-49F cells (RSL3 3 μM, compound 1.0 μM), 99%. Moreover, the “inhibition (%)” value was 100% in the experiment on PC-12 cells (setting [3]); 100% with PC-12 cells (setting [4]); 35% with PC-12 cells (setting [5]); 98% in the experiment with PC-12 cells (setting [6]); 100% with PC-12 cells (setting [7]); 100% in the experiment on PC-12 cells (setting [8]). For the same compound, the “inhibition (%)” value with MLE-12 cells (compound 0.1 μM) worked out at 100%; in the experiment on MLE-12 cells (compound 1.0 μM) it was 100%; in the experiment on ARPE-19 cells (setting [9]), 86%; with ARPE-19 cells (setting [10]), 100%; with ARPE-19 cells (setting [11]) it was 61%; in the experiment with ARPE-19 cells (setting [12]) it was 100%.

For the origin of these results see US20250122155A1, “NOVEL INDOLE DERIVATIVE, PHARMACEUTICAL COMPOSITION COMPRISING SAME, AND USE THEREOF” (MITOIMMUNE THERAPEUTICS INC., priority 2021, published 2025).
